Data published in ChEMBL document CHEMBL1671827, “Discovery of MK-5046, a Potent, Selective Bombesin Receptor Subtype-3 Agonist for the Treatment of Obesity” (ACS Med Chem Lett, 2011).
Calls of active or inactive are those of the source. The calls are words filed in the database; no cut-off is given here.

Assays:
[1] = target: T1, Bombesin receptor subtype-3 (Homo sapiens, UniProt P32247); assay: Displacement of [125I]-[D-Tyr6,beta-Ala11,Phe13,Nle14]-Bombesin (6-14) from human BRS-3
T1 sequence (P32247 whole entry): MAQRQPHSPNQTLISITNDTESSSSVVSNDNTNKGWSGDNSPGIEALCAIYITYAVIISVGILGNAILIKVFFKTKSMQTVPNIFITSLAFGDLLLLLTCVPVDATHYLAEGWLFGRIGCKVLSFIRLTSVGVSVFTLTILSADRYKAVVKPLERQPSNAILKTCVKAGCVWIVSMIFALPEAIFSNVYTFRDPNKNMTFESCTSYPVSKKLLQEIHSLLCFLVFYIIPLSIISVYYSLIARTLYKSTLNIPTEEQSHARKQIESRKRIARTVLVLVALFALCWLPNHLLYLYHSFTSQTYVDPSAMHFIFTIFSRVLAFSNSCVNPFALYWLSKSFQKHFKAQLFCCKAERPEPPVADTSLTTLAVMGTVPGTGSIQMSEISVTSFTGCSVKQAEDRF

[2] = Half life in rat liver microsomes
[3] = Plasma clearance in rat at 1 mg/kg, iv; format: ADME, organism-based; design: dose 1 mg/kg, route intravenous
[4] = target: T1, Bombesin receptor subtype-3; assay: Agonist activity at human BRS-3 expressed in HEK293AEQ cells assessed as induction of intracellular calcium mobilization by aequorin bioluminescence assay; format: functional, cell-based
[5] = Faction unbound in human plasma at 1 uM; format: ADME, cell-free
[6] = Plasma clearance in dog at 0.5 mg/kg, iv; format: ADME, organism-based, Canis lupus familiaris; design: dose 0.5 mg/kg, route intravenous
[7] = Half life in dog at 0.5 mg/kg, iv; format: ADME, organism-based, Canis lupus familiaris; design: dose 0.5 mg/kg, route intravenous; conditions: in vivo
[8] = Oral bioavailability in dog at 1 mg/kg; format: ADME, organism-based, Canis lupus familiaris; conditions: in vivo
[9] = target: Voltage-gated inwardly rectifying potassium channel KCNH2 (Homo sapiens, UniProt Q12809); assay: Binding affinity to human ERG
Sequence of Voltage-gated inwardly rectifying potassium channel KCNH2 (Q12809 whole entry): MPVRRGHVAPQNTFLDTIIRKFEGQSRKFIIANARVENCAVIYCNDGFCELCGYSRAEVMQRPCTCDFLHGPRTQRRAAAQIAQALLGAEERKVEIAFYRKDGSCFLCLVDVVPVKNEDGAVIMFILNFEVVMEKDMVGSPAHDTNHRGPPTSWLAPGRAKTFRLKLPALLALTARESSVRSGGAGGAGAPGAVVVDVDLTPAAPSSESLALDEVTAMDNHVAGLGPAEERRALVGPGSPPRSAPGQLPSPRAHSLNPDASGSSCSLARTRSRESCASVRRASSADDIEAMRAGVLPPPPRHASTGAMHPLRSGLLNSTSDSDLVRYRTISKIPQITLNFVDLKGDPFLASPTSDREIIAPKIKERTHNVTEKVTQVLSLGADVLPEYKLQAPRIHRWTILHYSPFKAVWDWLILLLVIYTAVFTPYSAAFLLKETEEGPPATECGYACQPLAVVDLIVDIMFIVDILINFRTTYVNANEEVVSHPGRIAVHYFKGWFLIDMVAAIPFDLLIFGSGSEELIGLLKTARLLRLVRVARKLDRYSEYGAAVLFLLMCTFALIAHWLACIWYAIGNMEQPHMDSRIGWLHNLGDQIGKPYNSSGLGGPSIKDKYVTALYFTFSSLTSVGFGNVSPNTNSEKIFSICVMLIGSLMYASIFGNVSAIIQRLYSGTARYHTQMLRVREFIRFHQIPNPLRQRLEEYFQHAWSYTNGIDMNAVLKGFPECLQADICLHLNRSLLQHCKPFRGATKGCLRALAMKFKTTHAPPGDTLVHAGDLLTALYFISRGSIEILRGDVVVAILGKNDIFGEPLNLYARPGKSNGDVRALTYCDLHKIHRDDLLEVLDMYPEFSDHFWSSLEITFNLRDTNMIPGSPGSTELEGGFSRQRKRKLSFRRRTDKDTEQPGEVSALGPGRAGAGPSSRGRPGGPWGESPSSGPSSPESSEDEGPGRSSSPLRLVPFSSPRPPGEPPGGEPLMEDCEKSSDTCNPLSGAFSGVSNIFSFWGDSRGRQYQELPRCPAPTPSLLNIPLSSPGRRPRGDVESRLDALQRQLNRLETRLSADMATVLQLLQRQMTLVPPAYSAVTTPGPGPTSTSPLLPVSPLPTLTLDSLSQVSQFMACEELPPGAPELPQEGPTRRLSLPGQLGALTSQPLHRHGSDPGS

[10] = target: T2, Bombesin receptor subtype-3 (Mus musculus, UniProt O54798); assay: Displacement of [3H]Bag-3 from mouse BRS-3
T2 sequence (O54798 whole entry): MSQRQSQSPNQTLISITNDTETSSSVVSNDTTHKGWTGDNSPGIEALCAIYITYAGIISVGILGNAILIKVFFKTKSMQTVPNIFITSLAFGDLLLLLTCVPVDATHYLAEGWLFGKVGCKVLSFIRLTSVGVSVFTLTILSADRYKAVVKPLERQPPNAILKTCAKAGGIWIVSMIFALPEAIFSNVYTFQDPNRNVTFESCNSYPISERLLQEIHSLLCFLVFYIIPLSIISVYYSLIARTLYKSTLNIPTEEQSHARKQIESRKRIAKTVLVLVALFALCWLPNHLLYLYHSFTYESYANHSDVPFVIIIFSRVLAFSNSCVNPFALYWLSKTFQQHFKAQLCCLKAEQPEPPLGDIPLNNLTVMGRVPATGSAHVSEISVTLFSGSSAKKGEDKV

[11] = target: T3, Bombesin receptor subtype-3 (Rattus norvegicus, UniProt Q8K418); assay: Displacement of [3H]Bag-3 from rat BRS-3
T3 sequence (Q8K418 whole entry): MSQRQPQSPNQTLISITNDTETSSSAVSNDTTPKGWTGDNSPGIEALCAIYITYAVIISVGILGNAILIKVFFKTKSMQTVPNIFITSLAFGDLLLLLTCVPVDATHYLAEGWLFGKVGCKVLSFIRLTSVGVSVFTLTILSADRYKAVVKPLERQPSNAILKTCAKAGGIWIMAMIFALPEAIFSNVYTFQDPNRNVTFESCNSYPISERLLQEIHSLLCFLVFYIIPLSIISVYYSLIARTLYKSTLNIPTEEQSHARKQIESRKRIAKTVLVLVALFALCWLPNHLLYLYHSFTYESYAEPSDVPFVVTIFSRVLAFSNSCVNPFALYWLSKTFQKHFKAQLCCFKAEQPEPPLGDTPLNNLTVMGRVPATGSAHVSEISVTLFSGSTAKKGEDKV

[12] = Binding affinity to dog BRS-3; design: species or system Canis lupus familiaris
[13] = Binding affinity to rhesus monkey BRS-3; design: species or system Macaca mulatta
[14] = target: T2, Bombesin receptor subtype-3; assay: Agonist activity at mouse BRS-3 expressed in HEK293AEQ cells assessed as induction of intracellular calcium mobilization by aequorin bioluminescence assay; format: functional, cell-based
[15] = target: T3, Bombesin receptor subtype-3; assay: Agonist activity at rat BRS-3 expressed in HEK293AEQ cells assessed as induction of intracellular calcium mobilization by aequorin bioluminescence assay; format: functional, cell-based
[16] = Agonist activity at dog BRS-3 expressed in HEK293AEQ cells assessed as induction of intracellular calcium mobilization by aequorin bioluminescence assay; format: functional, cell-based; conditions: Canis lupus familiaris
[17] = Agonist activity at dog BRS-3 expressed in HEK293AEQ cells assessed as induction of intracellular calcium mobilization by aequorin bioluminescence assay relative to dY peptide; conditions: Canis lupus familiaris
[18] = Agonist activity at rhesus monkey BRS-3 expressed in HEK293AEQ cells assessed as induction of intracellular calcium mobilization by aequorin bioluminescence assay; format: functional, cell-based; conditions: Macaca mulatta
[19] = Agonist activity at rhesus monkey BRS-3 expressed in HEK293AEQ cells assessed as induction of intracellular calcium mobilization by aequorin bioluminescence assay relative to dY peptide; conditions: Macaca mulatta
[20] = Oral bioavailability in mouse at 2 mg/kg, po; format: ADME, organism-based; conditions: in vivo
[21] = Plasma clearance in mouse at 1 mg/kg, iv; format: ADME, organism-based; design: dose 1 mg/kg, route intravenous
[22] = Volume of distribution at steady state in mouse at 1 mg/kg, iv; format: ADME, organism-based; design: dose 1 mg/kg, route intravenous; conditions: in vivo, read-out: Vdss
[23] = Half life in mouse at 1 mg/kg, iv; format: ADME, organism-based; design: dose 1 mg/kg, route intravenous; conditions: in vivo
[24] = Oral bioavailability in rat at 2 mg/kg; format: ADME, organism-based; conditions: in vivo
[25] = Volume of distribution at steady state in rat at 1 mg/kg, iv; format: ADME, organism-based; design: dose 1 mg/kg, route intravenous; conditions: in vivo, read-out: Vdss
[26] = Half life in rat at 1 mg/kg, iv; format: ADME, organism-based; design: dose 1 mg/kg, route intravenous; conditions: in vivo
[27] = Volume of distribution at steady state in dog at 0.5 mg/kg, iv; format: ADME, organism-based, Canis lupus familiaris; design: dose 0.5 mg/kg, route intravenous; conditions: in vivo, read-out: Vdss
[28] = Oral bioavailability in rhesus monkey at 1 mg/kg; format: ADME, organism-based, Macaca mulatta; conditions: in vivo
[29] = Plasma clearance in rhesus monkey at 0.5 mg/kg, iv; format: ADME, organism-based, Macaca mulatta; design: dose 0.5 mg/kg, route intravenous
[30] = Volume of distribution at steady state in rhesus monkey at 0.5 mg/kg, iv; format: ADME, organism-based, Macaca mulatta; design: dose 0.5 mg/kg, route intravenous; conditions: in vivo, read-out: Vdss
[31] = Half life in rhesus monkey at 0.5 mg/kg, iv; format: ADME, organism-based, Macaca mulatta; design: dose 0.5 mg/kg, route intravenous; conditions: in vivo
[32] = species on record: Mus musculus; assay: Antiobesity activity in wild type mouse assessed as reduction of food intake; format: functional, organism-based
[33] = species on record: Mus musculus; assay: Antiobesity activity in wild type mouse assessed as increase of fasting metabolic rate; format: functional, organism-based
[34] = species on record: Mus musculus; assay: Antiobesity activity in BRS3 deficient mouse assessed as reduction of food intake; format: functional, organism-based
[35] = species on record: Mus musculus; assay: Antiobesity activity in BRS3 deficient mouse assessed as increase of fasting metabolic rate; format: functional, organism-based
[36] = tested on: Mus musculus; assay: Antiobesity activity in eDIO mouse assessed as reduction of body weight at 25 mg/kg, sc relative to control; format: functional; design: scale not given: the % may be the effect or the level left; conditions: route subcutaneous
[37] = tested on: Mus musculus; assay: Antiobesity activity in eDIO mouse assessed as reduction of body weight at 25 mg/kg, sc after 14 days; format: functional, organism-based; design: dose 25 mg/kg
[38] = Fraction unbound in rat plasma at 1 uM; format: ADME, cell-free
[39] = target: Neuromedin-B receptor (Homo sapiens, UniProt P28336); assay: Inhibition of human NMBR
Sequence of Neuromedin-B receptor (P28336 whole entry): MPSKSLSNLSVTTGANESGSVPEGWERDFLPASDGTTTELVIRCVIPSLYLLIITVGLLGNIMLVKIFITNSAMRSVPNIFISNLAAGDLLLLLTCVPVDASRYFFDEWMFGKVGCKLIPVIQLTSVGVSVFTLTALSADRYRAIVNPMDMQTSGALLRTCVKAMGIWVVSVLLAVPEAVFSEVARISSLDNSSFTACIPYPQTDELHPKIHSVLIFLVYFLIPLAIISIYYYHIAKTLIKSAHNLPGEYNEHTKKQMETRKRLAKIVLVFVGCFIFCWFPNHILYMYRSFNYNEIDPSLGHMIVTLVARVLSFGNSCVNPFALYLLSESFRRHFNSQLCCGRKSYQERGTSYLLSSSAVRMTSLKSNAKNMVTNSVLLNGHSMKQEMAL

[40] = target: Gastrin-releasing peptide receptor (Homo sapiens, UniProt P30550); assay: Inhibition of human GRPR
Sequence of Gastrin-releasing peptide receptor (P30550 whole entry): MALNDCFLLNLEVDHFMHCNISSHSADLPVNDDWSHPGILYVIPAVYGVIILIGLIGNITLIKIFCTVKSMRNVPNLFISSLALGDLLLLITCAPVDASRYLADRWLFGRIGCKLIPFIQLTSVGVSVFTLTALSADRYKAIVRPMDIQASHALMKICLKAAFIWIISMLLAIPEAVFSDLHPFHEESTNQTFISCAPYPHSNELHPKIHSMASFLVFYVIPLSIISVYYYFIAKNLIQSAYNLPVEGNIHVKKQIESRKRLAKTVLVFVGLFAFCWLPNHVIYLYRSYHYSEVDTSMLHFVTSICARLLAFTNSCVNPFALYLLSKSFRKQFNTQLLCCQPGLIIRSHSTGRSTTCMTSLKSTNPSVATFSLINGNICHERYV

[41] = Inhibition of human calcium channel diltiazem binding site
[42] = target: T4, Nuclear receptor subfamily 1 group I member 2 (Homo sapiens, UniProt O75469)
T4 sequence (O75469 whole entry): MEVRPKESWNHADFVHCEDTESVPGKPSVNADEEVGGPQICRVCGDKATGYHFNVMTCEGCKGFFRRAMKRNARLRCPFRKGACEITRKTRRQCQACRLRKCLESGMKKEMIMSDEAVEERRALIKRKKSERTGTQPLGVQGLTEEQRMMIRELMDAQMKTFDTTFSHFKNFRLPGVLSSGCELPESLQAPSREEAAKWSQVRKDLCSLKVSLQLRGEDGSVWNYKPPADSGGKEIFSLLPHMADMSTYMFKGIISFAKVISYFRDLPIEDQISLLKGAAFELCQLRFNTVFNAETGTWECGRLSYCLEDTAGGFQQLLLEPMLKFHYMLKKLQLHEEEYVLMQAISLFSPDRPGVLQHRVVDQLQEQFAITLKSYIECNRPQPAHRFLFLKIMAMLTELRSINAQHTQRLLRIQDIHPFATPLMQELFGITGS

CCC(C)(C)Cc1cnc(CCc2ccc(-c3ccc(F)cn3)cc2)[nH]1
IC50 [1]: 16 nM | half-life [2]: 3 min | clearance [3]: 12 mL/min/kg

CC(C)(C)Cc1c[nH]c(CC(C)(O)c2ccc(-n3cccn3)cc2)n1 (stereo not drawn)
IC50 [1]: 5 nM | EC50 [4]: 16 nM | clearance [3]: 110 mL/min/kg | fraction unbound at 1 µM [5]: 0.068

CC(O)(Cc1nc(CC2(C(F)(F)F)CC2)c[nH]1)c1ccc(-n2cccn2)cc1 (stereo not drawn)
IC50 [1]: 11 nM | EC50 [4]: 14 nM | clearance [3]: 52 mL/min/kg | fraction unbound at 1 µM [5]: 0.032 | clearance [6]: 10 mL/min/kg | half-life [7]: 18 min | bioavailability [8]: 29%

O[C@@](Cc1nc(CC2(C(F)(F)F)CC2)c[nH]1)(c1ccc(-n2cccn2)cc1)C(F)(F)F
IC50 [1]: 27 nM | Ki [1]: 3.7 nM | EC50 [4]: 14 nM | Ki [9]: > 8000 nM | clearance [3]: 20 mL/min/kg | fraction unbound at 1 µM [5]: 0.01 | clearance [6]: 5.6 mL/min/kg | half-life [7]: 84 min | bioavailability [8]: 52% | IC50 [10]: 5.4 nM | Ki [10]: 1.6 nM | IC50 [11]: 1.2 nM | Ki [11]: 0.6 nM | IC50 [12]: 6.5 nM | Ki [12]: 9.9 nM | IC50 [13]: 50 nM | Ki [13]: 2.4 nM | EC50 [14]: 21 nM | EC50 [15]: 2.2 nM | EC50 [16]: 1.6 nM | Emax [17]: 100% | EC50 [18]: 6.9 nM | Emax [19]: 110% | bioavailability [20]: 9.6% | clearance [21]: 32 mL/min/kg | Vd [22]: 2.2 L/kg | half-life [23]: 66 min | bioavailability [24]: 64% | Vd [25]: 0.98 L/kg | half-life [26]: 42 min | Vd [27]: 0.45 L/kg | bioavailability [28]: 18% | clearance [29]: 8.8 mL/min/kg | Vd [30]: 0.44 L/kg | half-life [31]: 60 min | Activity [32]: Active | Activity [33]: Active | Activity [34]: inactive | Activity [35]: inactive | Activity [36]: 8% | Activity [37]: Active

CC(C)(C)Cc1c[nH]c(CC(C)(O)c2ccc(-c3ccc(F)cn3)cc2)n1 (stereo not drawn)
IC50 [1]: 17 nM | EC50 [4]: 67 nM | half-life [2]: 5 min | Ki [9]: 4200 nM | clearance [3]: 28 mL/min/kg | fraction unbound at 1 µM [5]: 0.004 | fraction unbound at 1 µM [38]: 0.2 | IC50 [39]: > 10000 nM | IC50 [40]: > 10000 nM | IC50 [41]: 1900 nM | EC50 [42]: > 25000 nM

CC(C)(C)Cc1c[nH]c(C(C)(O)Cc2ccc(-c3ccc(F)cn3)cc2)n1 (stereo not drawn)
IC50 [1]: 82 nM | EC50 [4]: 220 nM | half-life [2]: 1 min | Ki [9]: 5900 nM | clearance [3]: 14 mL/min/kg | fraction unbound at 1 µM [5]: 0.001 | fraction unbound at 1 µM [38]: 0.2
